Results: patent publication US9765092B2, “Tricyclic piperidine compounds” (ACTELION PHARMACEUTICALS LTD, priority 2013, dated 2017)

target: human TPH1 (Homo sapiens (Human), UniProt P17752); assay: Biochemical in vitro assay using fluorescence readout (TPH1 inhibition); conditions: full length human TPH1, 40 μM L-tryptophan, 15° C., 60 minutes, fluorescence at 540 nm; mean if determined several times
Source text: Biochemical In Vitro Assay Using Fluorescence Readout
To generate the enzyme, full length human TPH1 is cloned into the plasmid pET20b(+) (Novagen) and expressed in E. coli. The bacterial cells are ruptured by sonication on ice and the lysate is cleared by centrifugation. The resulting protein in the pellet is re-extracted and TPH1 is purified from the obtained lysate by affinity chromatography using a pterin cosubstrate analog immobilized to the resin of the column. The protein is further purified by size exclusion chromatography to remove protein aggregates. The activity of TPH1 is determined by using a fluorescence assay. The enzyme activity assay is carried out at 15° C. with atmosphere oxygen for the duration of 60 minutes in a volume of 64 μl. The reaction is carried out in a 0.1 M Tris-HCl buffer, adjusted to pH 7.6, containing 1 mM DTT, 0.2 mg/mL catalase, 100 μM (±)-6-methyl-5,6,7,8-tetrahydropterine dihydrochloride, 40 μM L-tryptophan, and 40-80 nM of TPH1. The reaction is started by bringing together L-tryptophan with all the other reaction substituents and stopped by quenching with perchloric acid (HClO4). The amount of 5-hydroxy-L-tryptophan produced during the enzymatic reaction is determined by fluorescence readout. Fluorescence, as determined at 540 nm when excited at 300 nm wavelength, increases proportionally to the 5-hydroxy-L-tryptophan formed. Compounds are prepared as 10 mM stock solution in DMSO, then diluted in 384-well plates using DMSO followed by a transfer of the dilutions into the assay plate. Fluorescence is measured for each well and the fluorescence at 540 nm wavelength is compared to the fluorescence of the vehicle in place of compound. Inhibitory activities of example compounds with respect to the TPH1 protein are determined by calculating the IC50 value (the concentration of compound needed to inhibit 50% of the enzyme activity). The calculated IC50 values may fluctuate depending on the daily biochemical assay performance. Fluctuations of this kind are known to those skilled in the art.

human TPH1, sequence (P17752 whole entry): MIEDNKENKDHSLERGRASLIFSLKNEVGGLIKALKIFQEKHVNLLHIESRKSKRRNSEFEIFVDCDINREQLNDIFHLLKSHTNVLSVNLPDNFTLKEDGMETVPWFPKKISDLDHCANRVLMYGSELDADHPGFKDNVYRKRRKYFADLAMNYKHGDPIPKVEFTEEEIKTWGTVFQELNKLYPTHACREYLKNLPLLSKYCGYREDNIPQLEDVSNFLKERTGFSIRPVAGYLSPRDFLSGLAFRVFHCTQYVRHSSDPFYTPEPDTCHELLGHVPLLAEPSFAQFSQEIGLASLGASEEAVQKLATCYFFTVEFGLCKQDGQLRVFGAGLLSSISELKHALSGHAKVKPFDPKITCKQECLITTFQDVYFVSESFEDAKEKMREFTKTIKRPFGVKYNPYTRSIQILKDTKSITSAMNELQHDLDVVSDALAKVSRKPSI

Compound	IC50
CONC(=O)c1ccc(OCC(=O)N2CCc3nc4sc(C)nn4c3C2c2ccc(Cl)cc2F)c(Cl)n1 (stereo not drawn) [Example 1.4.41, 6-Chloro-5-(2-(5-(4-chloro-2-fluorophenyl)-2-methyl-7,8-dihydro-[1,3,4]thiadiazolo[2′,3′:2,3]imidazo[4,5-c]pyridin-6(5H)-yl)-2-oxoethoxy)-N-methoxypicolinamide]	6 nM

same assay, conditions: human TPH1, fluorescence readout

Compound	IC50
Cc1nn2c3c(nc2s1)CCN(C(=O)COc1ccc(N(C)CC(F)(F)F)nc1Cl)C3c1ccc(Cl)cc1F (stereo not drawn) [Example 1.4.38, 1-(5-(4-chloro-2-fluorophenyl)-2-methyl-7,8-dihydro-[1,3,4]thiadiazolo[2′,3′:2,3]imidazo[4,5-c]pyridin-6(5H)-yl)-2-((2-chloro-6-(methyl(2,2,2-trifluoroethyl)amino)pyridin-3-yl)oxy)ethanone]	3 nM
Cc1nn2c3c(nc2s1)CCN(C(=O)COc1ccc(NS(C)(=O)=O)nc1Cl)C3c1ccc(Cl)cc1F (stereo not drawn) [Example 1.4.39, N-(6-chloro-5-(2-(5-(4-chloro-2-fluorophenyl)-2-methyl-7,8-dihydro-[1,3,4]thiadiazolo[2′,3′:2,3]imidazo[4,5-c]pyridin-6(5H)-yl)-2-oxoethoxy)pyridin-2-yl)methanesulfonamide]	5 nM
Cc1nn2c3c(nc2s1)CCN(C(=O)COc1cnc(N(C)C)nc1Cl)C3c1ccc(Cl)cc1F (stereo not drawn) [Example 1.4.40, 2-((4-chloro-2-(dimethylamino)pyrimidin-5-yl)oxy)-1-(5-(4-chloro-2-fluorophenyl)-2-methyl-7,8-dihydro-[1,3,4]thiadiazolo [2′,3′:2,3]imidazo[4,5-c]pyridin-6(5H)-yl)ethanone]	4 nM
Cc1nn2c3c(nc2s1)CCN(C(=O)COc1ccc(C(=O)N(C)C)nc1Cl)C3c1ccc(Cl)cc1F (stereo not drawn) [Example 1.4.42, 6-chloro-5-(2-(5-(4-chloro-2-fluorophenyl)-2-methyl-7,8-dihydro-[1,3,4]thiadiazolo[2′,3′:2,3]imidazo[4,5-c]pyridin-6(5H)-yl)-2-oxoethoxy)-N,N-dimethylpicolinamide]	18 nM
COC1(C)CN(c2ccc(OCC(=O)N3CCc4nc5sc(C)nn5c4C3c3ccc(Cl)cc3F)c(Cl)n2)C1 (stereo not drawn) [Example 1.4.43, 1-(5-(4-chloro-2-fluorophenyl)-2-methyl-7,8-dihydro-[1,3,4]thiadiazolo[2′,3′:2,3]imidazo[4,5-c]pyridin-6(5H)-yl)-2-((2-chloro-6-(3-methoxy-3-methylazetidin-1-yl)pyridin-3-yl)oxy)ethanone]	35 nM
Cc1nn2c3c(nc2s1)CCN(C(=O)COc1ccc(C2(N(C)C)CC2)nc1Cl)C3c1ccc(Cl)cc1F (stereo not drawn) [Example 1.4.44, 1-(5-(4-chloro-2-fluorophenyl)-2-methyl-7,8-dihydro-[1,3,4]thiadiazolo[2′,3′:2,3]imidazo[4,5-c]pyridin-6(5H)-yl)-2-((2-chloro-6-(1-(dimethylamino)cyclopropyl)pyridin-3-yl)oxy)ethanone]	51 nM
Cc1ncc(OCC(=O)N2CCc3nc4sc(C)nn4c3C2c2ccc(Cl)cc2F)c(C)n1 (stereo not drawn) [Example 1.4.45, 1-(5-(4-chloro-2-fluorophenyl)-2-methyl-7,8-dihydro-[1,3,4]thiadiazolo[2′,3′:2,3]imidazo[4,5-c]pyridin-6(5H)-yl)-2-((2,4-dimethylpyrimidin-5-yl)oxy)ethanone]	98 nM
Cc1nn2c3c(nc2s1)CCN(C(=O)COc1ccc(C(=O)N(C)C2CC2)nc1Cl)C3c1ccc(Cl)cc1F (stereo not drawn) [Example 1.4.46, 6-chloro-5-(2-(5-(4-chloro-2-fluorophenyl)-2-methyl-7,8-dihydro-[1,3,4]thiadiazolo[2′,3′:2,3]imidazo[4,5-c]pyridin-6(5H)-yl)-2-oxoethoxy)-N-cyclopropyl-N-methylpicolinamide]	16 nM
Cc1nn2c3c(nc2s1)CCN(C(=O)COc1ccc(-c2ncco2)nc1Cl)C3c1ccc(Cl)cc1F (stereo not drawn) [Example 1.4.47, 1-(5-(4-chloro-2-fluorophenyl)-2-methyl-7,8-dihydro-[1,3,4]thiadiazolo[2′,3′:2,3]imidazo[4,5-c]pyridin-6(5H)-yl)-2-((2-chloro-6-(oxazol-2-yl)pyridin-3-yl)oxy)etha-none]	10 nM
Cc1nn2c3c(nc2s1)CCN(C(=O)COc1ccc(N(C)S(C)(=O)=O)nc1Cl)C3c1ccc(Cl)cc1F (stereo not drawn) [Example 1.4.48, N-(6-chloro-5-(2-(5-(4-chloro-2-fluorophenyl)-2-methyl-7,8-dihydro-[1,3,4]thiadiazolo[2′,3′:2,3]imidazo[4,5-c]pyridin-6(5H)-yl)-2-oxoethoxy)pyridin-2-yl)-N-methylmethanesulfonamide]	10 nM
Cc1nn2c3c(nc2s1)CCN(C(=O)COc1ccc(N2CCCS2(=O)=O)nc1Cl)C3c1ccc(Cl)cc1F (stereo not drawn) [Example 1.4.49, 1-(5-(4-chloro-2-fluorophenyl)-2-methyl-7,8-dihydro-[1,3,4]thiadiazolo[2′,3′:2,3]imidazo[4,5-c]pyridin-6(5H)-yl)-2-((2-chloro-6-(1,1-dioxidoisothiazolidin-2-yl)pyridin-3-yl)oxy)ethanone]	9 nM
Cc1nn2c3c(nc2s1)CCN(C(=O)COc1ccc(NS(=O)(=O)N(C)C)nc1Cl)C3c1ccc(Cl)cc1F (stereo not drawn) [Example 1.4.50, N-(6-chloro-5-(2-(5-(4-chloro-2-fluorophenyl)-2-methyl-7,8-dihydro-[1,3,4]thiadiazolo[2′,3′:2,3]imidazo[4,5-c]pyridin-6(5H)-yl)-2-oxoethoxy)pyridin-2-yl)-N′,N′-dimethyl-sulfamide]	78 nM
CCc1nc(NS(C)(=O)=O)ccc1OCC(=O)N1CCc2nc3sc(C)nn3c2C1c1ccc(Cl)cc1F (stereo not drawn) [Example 1.4.51, N-(5-(2-(5-(4-chloro-2-fluorophenyl)-2-methyl-7,8-dihydro-[1,3,4]thiadiazolo[2′,3′:2,3]imidazo[4,5-c]-pyridin-6(5H)-yl)-2-oxoethoxy)-6-ethylpyridin-2-yl)methanesulfonamide]	12 nM
CNS(=O)(=O)Nc1ccc(OCC(=O)N2CCc3nc4sc(C)nn4c3C2c2ccc(Cl)cc2F)c(Cl)n1 (stereo not drawn) [Example 1.4.52, N-(6-chloro-5-(2-(5-(4-chloro-2-fluorophenyl)-2-methyl-7,8-dihydro-[1,3,4]thiadiazolo[2′,3′:2,3]imidazo[4,5-c]pyridin-6(5H)-yl)-2-oxoethoxy)pyridin-2-yl)-N′-methyl-sulfamide]	38 nM
Cc1nn2c3c(nc2s1)CCN(C(=O)C1(Oc2ccc(NS(C)(=O)=O)nc2Cl)CC1)C3c1ccc(Cl)cc1F (stereo not drawn) [Example 1.4.54, N-(6-chloro-5-(1-(5-(4-chloro-2-fluorophenyl)-2-methyl-5,6,7,8-tetrahydro-[1,3,4]thiadiazolo[2′,3′:2,3]imidazo[4,5-c]pyridine-6-carbonyl)cyclopropoxy)pyridin-2-yl)methanesulfonamide]	37 nM
Cc1nn2c3c(nc2s1)CCN(C(=O)COc1ccc(C(=O)NC2CC2)nc1C1CC1)C3c1ccc(Cl)cc1F (stereo not drawn) [Example 1.4.55, 5-(2-(5-(4-chloro-2-fluorophenyl)-2-methyl-7,8-dihydro-[1,3,4]thiadiazolo[2′,3′:2,3]imidazo[4,5-c]pyridin-6(5H)-yl)-2-oxoethoxy)-N,6-dicyclopropylpicolinamide]	9 nM
Cc1nn2c3c(nc2s1)CCN(C(=O)C(C)(C)Oc1ccc(NS(C)(=O)=O)nc1Cl)C3c1ccc(Cl)cc1F (stereo not drawn) [Example 1.4.56, N-(6-chloro-5-((1-(5-(4-chloro-2-fluorophenyl)-2-methyl-7,8-dihydro-[1,3,4]thiadiazolo[2′,3′:2,3]imidazo[4,5-c]pyridin-6(5H)-yl)-2-methyl-1-oxopropan-2-yl)oxy)pyridin-2-yl)methanesulfonamide]	567 nM
Cc1nn2c3c(nc2s1)CCN(C(=O)C1(Oc2ccc(C(=O)N(C)C)nc2Cl)CC1)C3c1ccc(Cl)cc1F (stereo not drawn) [Example 1.4.57, 6-chloro-5-(1-(5-(4-chloro-2-fluorophenyl)-2-methyl-5,6,7,8-tetrahydro-[1,3,4]thiadiazolo[2′,3′:2,3]imidazo[4,5-c]pyridine-6-carbonyl)cyclopropoxy)-N,N-dimethylpicolinamide]	39 nM
Cc1nn2c3c(nc2s1)CCN(C(=O)C(C)(C)Oc1ccc(C(=O)N(C)C)nc1Cl)C3c1ccc(Cl)cc1F (stereo not drawn) [Example 1.4.58, 6-chloro-5-((1-(5-(4-chloro-2-fluorophenyl)-2-methyl-7,8-dihydro-[1,3,4]thiadiazolo[2′,3′:2,3]imidazo[4,5-c]pyridin-6(5H)-yl)-2-methyl-1-oxopropan-2-yl)oxy)-N,N-dimethylpicolinamide]	55 nM
Cc1nn2c3c(nc2s1)CCN(C(=O)COc1ccc(S(C)(=O)=O)nc1Cl)C3c1ccc(Cl)cc1F (stereo not drawn) [Example 1.4.59, 1-(5-(4-chloro-2-fluorophenyl)-2-methyl-7,8-dihydro-[1,3,4]thiadiazolo[2′,3′:2,3]imidazo[4,5-c]pyridin-6(5H)-yl)-2-((2-chloro-6-(methylsulfonyl)pyridin-3-yl)oxy)ethan-1-one]	27 nM
